In patent publication US10844032B2, “Substituted benzofuran, benzothiophene and indole Mcl-1 inhibitors” (Vanderbilt University, priority 2012, dated 2020):
pKi: −log10 of the molar value.

target: recombinant Mcl-1 (residues 172-327) (Homo sapiens (Human), UniProt Q07820); experiment: Bak peptide fluorescence polarization anisotropy competition assay, Mcl-1; assay type: binding; conditions: not given
Sequence (Q07820 172-327): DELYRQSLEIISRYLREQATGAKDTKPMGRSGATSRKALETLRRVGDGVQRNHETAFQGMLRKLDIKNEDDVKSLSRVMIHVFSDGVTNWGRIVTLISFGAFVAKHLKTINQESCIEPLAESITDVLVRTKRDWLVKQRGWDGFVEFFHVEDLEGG

Compound | pKi
Cc1cc(OCCCc2c(C(=O)NS(=O)(=O)CCNC(=O)c3cn(Cc4ccccc4)c4ccccc34)[nH]c3ccccc23)cc(C)c1Cl [Example 201, N-((2-(1-benzyl-1H-indole-3-carboxamido)ethyl)sulfonyl)-3-(3-(4-chloro-3,5-dimethylphenoxy)propyl)-1H-indole-2-carboxamide] | 6.52 to 7.00

same assay, conditions: Table 2, Ki range; FITC-Bak peptide 10 nM, Mcl-1 14 nM; read-out: Ki for inhibition of Mcl-1

Compound | pKi
Cc1cc(OCCCc2c(C(=O)NS(=O)(=O)c3ccccc3)[nH]c3c(-c4cnccc4C(F)(F)F)cccc23)cc(C)c1Cl [Example 103, 3-(3-(4-chloro-3,5-dimethylphenoxy)propyl)-N-(phenylsulfonyl)-7-(4-(trifluoromethyl)pyridin-3-yl)-1H-indole-2-carboxamide] | ≥ 7.00
Cc1cc(OCCCc2c(C(=O)NS(=O)(=O)c3ccccc3)[nH]c3c(-c4ccnc5ccccc45)cccc23)cc(C)c1Cl [Example 92, 3-(3-(4-chloro-3,5-dimethylphenoxy)propyl)-N-(phenylsulfonyl)-7-(quinolin-4-yl)-1H-indole-2-carboxamide] | ≥ 7.00

Second part, the compound after the results:

pKi | Compound
≥ 7.00 | Cc1cc(OCCCc2c(C(=O)NS(=O)(=O)CCNC(=O)c3cccn3C)[nH]c3cc(Cl)ccc23)cc(C)c1Cl [Example 233, 6-chloro-3-(3-(4-chloro-3,5-dimethylphenoxy)propyl)-N-((2-(1-methyl-1H-pyrrole-2-carboxamido)ethyl)sulfonyl)-1H-indole-2-carboxamide]
≥ 7.00 | Cc1cc(OCCCc2c(C(=O)NS(=O)(=O)CCNC(=O)C3CCCCC3)[nH]c3cc(Cl)ccc23)cc(C)c1Cl [Example 226, 6-chloro-3-(3-(4-chloro-3,5-dimethylphenoxy)propyl)-N-((2-(cyclohexanecarboxamido)ethyl)sulfonyl)-1H-indole-2-carboxamide]

same assay, conditions: read-out: Ki for inhibition of Mcl-1

Compound | pKi
Cc1ccccc1S(=O)(=O)NC(=O)c1[nH]c2ccccc2c1CCCOc1cc(C)c(Cl)c(C)c1 [Example 137, 3-(3-(4-chloro-3,5-dimethylphenoxy)propyl)-N-(o-tolylsulfonyl)-1H-indole-2-carboxamide] | 6.52 to 7.00
CS(=O)(=O)NC(=O)c1[nH]c2ccccc2c1CCCOc1ccc(C(F)(F)F)cc1 [Example 34, N-(methylsulfonyl)-3-(3-(4-(trifluoromethyl)phenoxy)propyl)-1H-indole-2-carboxamide] | 4.30 to 5.00
CS(=O)(=O)NC(=O)c1[nH]c2ccccc2c1CCCOc1cccc2c1CCCC2 [Example 46, N-(methylsulfonyl)-3-(3-((5,6,7,8-tetrahydronaphthalen-1-yl)oxy)propyl)-1H-indole-2-carboxamide] | 5.00 to 6.00
Cc1cc(OCCCc2c(C(=O)NS(=O)(=O)CCNC(=O)/C=C/c3ccccc3)[nH]c3ccccc23)cc(C)c1Cl [Example 163, (E)-3-(3-(4-chloro-3,5-dimethylphenoxy)propyl)-N-((2-cinnamamidoethyl)sulfonyl)-1H-indole-2-carboxamide] | 6.52 to 7.00
CS(=O)(=O)NC(=O)c1[nH]c2cccc(Cl)c2c1CCCOc1cccc2ccccc12 [Example 49, 4-chloro-N-(methylsulfonyl)-3-(3-(naphthalen-1-yloxy)propyl)-1H-indole-2-carboxamide] | 6.52 to 7.00

The remaining lines, values ahead:

pKi | Compound
6.30 to 6.52 | Cc1cc(OCCCc2c(C(=O)NS(=O)(=O)CCNC(=O)C3CCCCC3)[nH]c3cccc(Cl)c23)cc(C)c1Cl [Example 208, 4-chloro-3-(3-(4-chloro-3,5-dimethylphenoxy)propyl)-N-((2-(cyclohexanecarboxamido)ethyl)sulfonyl)-1H-indole-2-carboxamide]
6.30 to 6.52 | Cc1cc(OCCCc2c(C(=O)NS(=O)(=O)CCNC(=O)c3cc(C)n(C)c3C)[nH]c3ccccc23)cc(C)c1Cl [Example 192, 3-(3-(4-chloro-3,5-dimethylphenoxy)propyl)-N-((2-(1,2,5-trimethyl-1H-pyrrole-3-carboxamido)ethyl)sulfonyl)-1H-indole-2-carboxamide]
6.52 to 7.00 | Cc1cc(OCCCc2c(C(=O)NS(=O)(=O)CCNC(=O)Cc3c[nH]c4ccccc34)[nH]c3ccccc23)cc(C)c1Cl [Example 177, N-((2-(2-(1H-indol-3-yl)acetamido)ethyl)sulfonyl)-3-(3-(4-chloro-3,5-dimethylphenoxy)propyl)-1H-indole-2-carboxamide]
